Data published in US12484579B2, “Agrochemical composition and methods of preparing and using the same” (priority 2018, dated 2025).

Assay: Solubility of Mesotrione in solvents
Format: physicochemical
Text: Mesotrione has been introduced in both Rhodiasolv® Li-Tec 2v and Rhodiasolv® Polarclean. Mesotrione is not soluble in Rhodiasolv® Li-Tec 2v and is soluble in (for instance at concentration of 30 g/L) Rhodiasolv® Polarclean.

SMILES: CS(=O)(=O)c1ccc(C(=O)C2C(=O)CCCC2=O)c([N+](=O)[O-])c1 [Mesotrione, 2-(4-methylsulfonyl-2-nitrobenzoyl)-cyclohexane-1,3-dione]
- Solubility in Rhodiasolv® Li-Tec 2v (solvent Rhodiasolv® Li-Tec 2v): not soluble
- Solubility in Rhodiasolv® Polarclean (solvent Rhodiasolv® Polarclean, for instance at concentration of 30 g/L): soluble
